In one assay the test system is Tubulin. Briefly: Inhibition of taxol-induced microtubule polymerization (turbidity at 350 nm). The class given is biochemical. Conditions: 20 μM, tubulin 1 mg/ml, FIG. 3. The method, then:
The ability of drugs to inhibit taxol-induced polymerisation of tubulin was measured by turbidity at 350 nm. Tubulin (Cryoskeleton Inc., Denver, Colo.), at a final concentration of 1 mg/ml was incubated at 32° C. in G-PEM buffer [80 mM piperazine-N,N′-bis (2-ethane sulfonic acid) sequisodium salt, 1 mM MgCl2, 1 mM EGTA and 1 mM GTP (pH 6.8)] in the presence of taxol with or without estrone derivatives [20 μM].
STX641 is thought to act as an anti-microtubule agent, i.e. to disrupt microtubule function. To show this, tubulin was incubated in the presence of taxol (a compound known to promote tubulin polymerisation). Taxol induced efficient in vitro microtubule assembly as reflected in the increase in turbidity as measured at 350 nm.

In the next assay the test system is MCF-7 cells. Put plainly: Inhibition of glucose uptake, MCF-7. The class given is cell-based. Conditions: 15 min, 2-deoxy-D-[1-3H]glucose. The method, then:
(§1) To measure the inhibition of glucose uptake into cells, cells were plated into 12-well multi-well plates and grown to confluence. Cells were washed with phosphate-buffered saline (PBS) and incubated for 15 min in incubation buffer containing 1 μCi 2-deoxy-D-[1-^3H]glucose (NEN-Dupont, UK) per well in the absence or presence of potential inhibitors (0.1-10 μM). Uptake was terminated by washing the cells in cold (4° C.) PBS. The cells were solubilized in. Triton-X in 0.01M sodium hydroxide and processed for liquid scintillation counting (Singh et al., Molecular and Cellular Endocrinology, 160: 61-66, 2000).

Another assay has as its system MDA MB 231 Cells. Briefly: Inhibition of glucose uptake, MDA MB 231. Conditions: 15 min, 2-deoxy-D-[1-3H]glucose. In kind it is cell-based. The method, then:
as §1

Assay [1] has as its system A2780 Ovarian Cancer Cells. Put plainly: Cell cycle arrest and annexin V FACs analysis, A2780. The class given is cell-based. Conditions: 1 μM, FIG. 12. An excerpt:
For controls, there is no cell surface expression as indicated by a lack of a peak in the M2 region.

The test system of assay [2] is MCF-7 breast cancer cell tumours. Briefly: MCF-7 Breast Cancer Nude Mouse Model (xenograft). In kind it is in vivo, ICRF nude (nu/nu) mice. Conditions: for tumour regression: 20 mg/kg p.o 5 times a week, 3 week dosing period; for tumour vasculature, FITC imaging: 20 mg/kg p.o; for tumour vasculature, FITC imaging / inhibition of tumour angiogenesis, FITC quantification: 3 weeks; for inhibition of tumour angiogenesis, FITC quantification: 20 mg/kg. The method, then:
Adult female ICRF nude (nu/nu) mice were injected with 10×10^6 MCF-7 cells/0.1 ml Matrigel s.c and tumour growth was monitored weekly. When tumours reached 100-150 mm^3 in volume, the mice were divided into the following groups:
The mice were injected intravenously with 0.1 ml of 25 mg/ml FITC-Dextran solution 20 minutes prior to killing to allow the visualisation and quantification of tumour angiogenesis.

Assay [3] deals with Human Umbilical Vein Cells. Put plainly: 96 well plate MTS proliferation assay, Human Umbilical Vein Cells. In kind it is cell-based. Conditions: read-out: mean inhibition of three wells +/-Sds. The text has this:
Human Umbilical Vein Cells; 96 well plate MTS proliferation assay, mean inhibition of three wells +/−Sds.
In general terms: Tetrazolium dyes change colour on reduction, which living cells bring about.

Another assay has as its system Human Dermal Fibroblasts. Put plainly: 96 well plate MTS proliferation assay, Human Dermal Fibroblasts. Conditions: Fibroblast, read-out: mean inhibition of three wells +/-Sds. The class given is cell-based. The text has this:
Human Dermal Fibroblasts; 96 well plate MTS proliferation assay, mean inhibition of three wells +/−Sds.

On to `COc1cc2c(cc1OS(N)(=O)=O)CCC1C2CC[C@@]2(C)C1CC[C@@H]2CC#N` (stereo in doubt) [Compound 33, Sulfamic acid 17-cyanomethyl-2-methoxy-13-methyl-7,8,9,11,12,13,14,15,16,17-decahydro-6H-cyclopenta[a]phenanthren-3-yl ester], for which, in the assay on Tubulin, the “inhibition of taxol-induced polymerisation of tubulin” value was “effectively blocked tubulin assembly”. Also, the “% Inhibition of Glucose Uptake MCF-7 Cells” value in the assay with MCF-7 cells was found to be 28%. In the assay with MDA MB 231 Cells, the “% Inhibition of Glucose Uptake MDA MB 231 Cells” value came to 60%. In assay [1] (24 hours), the G2/M arrest entry is listed as “G2/M arrest”. In addition, the “annexin V staining (apoptotic marker), FACs” value in assay [1] was “marked increase in staining”. In assay [2], the tumour regression is given as 25%; the “tumour vasculature, FITC imaging” value is “disrupted and ill defined”; the “inhibition of tumour angiogenesis, FITC quantification” value worked out at 60%.
`COc1cc2c(cc1OS(N)(=O)=O)CCC1C2CC[C@@]2(C)C1CC[C@@H]2OS(N)(=O)=O` (stereo partly drawn) [STX 140, reference compound]: the inhibition at 0.05 µM came to 7% in assay [3] (0.05 μM) and 0% in the assay with Human Dermal Fibroblasts (0.05 μM). The inhibition at 0.1 µM is 18% in assay [3] (0.10 μM) and 2% in the assay on Human Dermal Fibroblasts (0.10 μM). The results for the inhibition at 1 µM (in assay [3] (1.00 μM); in the assay on Human Dermal Fibroblasts (1.00 μM)) were 59% and 9%, respectively. The inhibition at 5 µM in assay [3] (5.00 μM) came to 49%; in the assay with Human Dermal Fibroblasts (5.00 μM) it was 18%. The “% Inhibition of Glucose Uptake MCF-7 Cells” value in the assay on MCF-7 cells is reported as 68%. For the same compound, the “% Inhibition of Glucose Uptake MDA MB 231 Cells” value in the assay with MDA MB 231 Cells is on record as 77%. This compound also returned a tumour regression in assay [2] of 59%. In assay [2], the “tumour vasculature, FITC imaging” value is “disrupted and ill defined”. The “inhibition of tumour angiogenesis, FITC quantification” value in assay [2] is recorded as 40%.
